# PMC6747087, “Characterization of Tachyplesin Peptides and Their Cyclized Analogues to Improve Antimicrobial and Anticancer Properties” (International Journal of Molecular Sciences, 2019)
# Like-named read-outs stand apart in the source and are kept apart here. Residues, ends and D or L forms follow the SMILES beside them.
# Columns and labels:
# [1] = human serum, 2 h; cited from earlier work
# [2] = mouse serum, 2 h; cited from earlier work
# in vitro = details: human, 25% (v/v) human serum
# Protocol: The serum stability assay was carried out as previously described with some modifications. Briefly, tachyplesin variants were incubated in 25% (v/v) human serum diluted in phosphate-buffered saline (PBS) at a final concentration of 50 µM at 37 °C. Triplicates were collected at time 0 h and 24 h and the serum proteins were precipitated with acetonitrile (1:3 ratio) supplemented with 3% TFA. Samples were kept on ice for 10 min before centrifugation at 17,000× g for 10 min at 4 °C. The peptide containing supernatant of each sample was harvested and quantified using RP-HPLC (10 to 45% solvent B, 1%/min gradient). The percentage of peptide stability in human serum was calculated by comparing the area of the peptide peak obtained at 24 h to that at time 0 h. A linear peptide containing 18 amino acid residues ([…]) was included as a control susceptible to proteolytic degradation.
# [3] = Cytotoxicity assay (resazurin); format: cell-based, Human; details: ± SEM, n ≥ 3; for CC50 at 2 h: human
# Protocol: Cells were grown in cell culture flasks and incubated in a humidified atmosphere (5% CO2, 37 °C). The cancer cell lines HeLa and the control cell line HaCaT were grown in a DMEM medium supplemented with 1% (v/v) penicillin/streptomycin and 10% (v/v) fetal bovine serum (FBS). The cancer cell lines MM96L, HT144 and WM164 were grown in a RPMI medium supplemented with 1% (v/v) penicillin/[…], 10% (v/v) FBS, 20 mM L-glutamine, and 10 mM sodium pyruvate. Cell cultures were maintained by dilution upon reaching confluence, each 48–72 h. More information about the cell lines is available in Tables S2 and S3.
# (§1) Cells were seeded into 96-well flat-bottom plates at 5 × 10^3 cells/well and incubated overnight. The medium was removed and replaced with 90 µL serum-free medium, 10 µL of 10x concentrated peptide solutions in PBS were added. PBS was added as blank and 0.1% (v/v) Triton X-100 was used to establish 100% of cell death. After 2 h incubation at 37 °C, 10 µL of filtered 0.05% (w/v) resazurin solution was added to each well [70]. Resazurin is converted to the pink and fluorescent compound resorufin by viable cells. After incubation overnight, the fluorescence intensity (λex = 565 nm and λem = 584 nm) was measured with the Tecan infinite M1000Pro multiplate reader (Männedorf, Switzerland).
# S. aureus ATCC 25923 = test: MIC against planktonic bacteria (resazurin); format: cell-based, Staphylococcus aureus; details: Mueller Hinton Broth
# Protocol: (§2) S. aureus ATCC 25923, S. aureus ATCC 6538, E. coli ATCC 25922, and E. coli DC2 CGSC 7139 were grown in Mueller Hinton Broth (Sigma Aldrich, St. Luis, USA). Bacterial cultures in the exponential growth phase were diluted to an OD600nm of 0.001 and seeded into 96-well plates. Peptides at different concentrations, starting at 64 µM and with two-fold serial dilutions (i.e., 64, 32, 16, 8, 4, 2, 1, 0.5, 0.25, 0.125 and 0.0625 µM), were incubated with cells; 0.05% (v/v) resazurin was added to the cultures the next day and the conversion to resorufin was measured after 1 h of incubation at 37 °C using a 565 nm excitation and 584 nm emission wavelength, as above.
# S. aureus ATCC 6538 = test: MIC against planktonic bacteria (resazurin); format: cell-based, Staphylococcus aureus; details: Mueller Hinton Broth
# Protocol: as §2
# [4] = Activity against preformed biofilm (resazurin metabolic activity); format: cell-based, Staphylococcus aureus; details: 24 h preformed biofilm, 4 h peptide treatment, read-out: CC50 (reduction of 50% of the metabolically active cell population)
# Protocol: (§3) S. aureus ATCC 6538 (1 × 10^6 cfu/mL) was cultured in Tryptic Soy Broth, containing 0.25% (w/v) glucose and incubated in 96-well microtiter flat-bottomed polystyrene plates for 24 h at 37 °C. Preformed biofilms were then washed with Mueller Hinton Broth to remove non-adherent cells. Two-fold serial dilutions of each peptide (highest concentration tested was 32 µM and lowest was 0.25 µM) were added to the biofilms for 4 h. Untreated 24 h preformed biofilms were used as a control. The metabolic activity of biofilm-embedded cells was determined using a resazurin reduction fluorometric assay as previously described.
# E. coli DC2 CGSC 7139 = test: MIC against planktonic bacteria (resazurin); format: cell-based, Escherichia coli; details: Mueller Hinton Broth
# Protocol: as §2
# E. coli ATCC 25922 = test: MIC against planktonic bacteria (resazurin); format: cell-based, Escherichia coli; details: Mueller Hinton Broth
# Protocol: as §2
# [5] = Hemolytic activity against human red blood cells; format: cell-based; details: at 64 µM peptide, human RBCs, read-out: RBCs lysed (hemolysis)
# Protocol: (§4) A small amount of blood was collected from three healthy human donors. The blood was immediately diluted in PBS and centrifuged 4–5 times for 1 min at 4000 rpm to wash and separate the human red blood cells (RBCs). RBCs suspension (0.25% (v/v) in PBS) was incubated with peptides with two-fold serial dilutions of the peptide (highest concentration tested was 128 µM, and the lowest was 0.25 µM) in a 96-well plate. Melittin, a membrane disruptive peptide, was used as control. The plates were incubated for 1 h at 37 °C. After incubation, the plates were centrifuged for 5 min at 1000 rpm to pellet any non-lysed RBCs. A total of 100 µL of the supernatant were transferred to a new 96-well plate. The hemoglobin released into the supernatant from lysed cells was measured by absorbance at 415 nm using the Tecan infinite M1000Pro multiplate reader (Männedorf, Switzerland).
# [6] = tested on: human red blood cells (RBCs); test: Hemolytic activity against human red blood cells; format: cell-based; details: human RBCs 0.25% (v/v), 1 h, 37 °C; mean ± SEM
# Protocol: as §4
# [7] = tested on: melanoma cell lines MM96L, HT144 and WM164; test: Cytotoxicity and selectivity (activity-toxicity index) for melanoma cell lines; format: cell-based; details: MHC inducing 10% (lower value) or 50% (higher value) cell death in human RBCs over median CC50 of melanoma lines
# Protocol: as §1
# The selectivity was calculated through the activity-toxicity index (ATI). ATI = MHC/MCC50, with MHC being the minimal concentration necessary to induce 10% or 50% cell death in human red blood cells and MCC50 the median of cytotoxic concentrations (CC50) of all tested melanoma cell lines.
# [8] = tested on: Pseudomonas aeruginosa biofilm; parameters: method as in PMID 18022289; details: rat model of ureteral stent infection; cited from earlier work
# [9] = tested on: S. aureus ATCC 6538 biofilm; test: Activity against preformed biofilm (resazurin metabolic activity); format: cell-based, Staphylococcus aureus; details: cells remaining metabolically active at 32 µM, the highest concentration tested
# Protocol: as §3
# [10] = HT144, 2 h peptide in serum-free medium
# [11] = WM164, 2 h peptide in serum-free medium
smiles,measurement,setting,value
"[H][C@]12CSSC[C@]([H])(NC(=O)[C@]([H])([C@@H](C)CC)NC(=O)CNC(=O)[C@H](CCCNC(=N)N)NC(=O)[C@H](Cc3ccc(O)cc3)NC1=O)C(=O)N[C@@H](Cc1ccc(O)cc1)C(=O)N[C@@H](CCCNC(=N)N)C(=O)N[C@@H](CCCNC(=N)N)C(=O)N[C@H](C(=O)N[C@@H](CCCNC(=N)N)C(N)=O)CSSC[C@H](NC(=O)[C@H](Cc1c[nH]c3ccccc13)NC(=O)[C@@H](N)CCCCN)C(=O)N[C@@H](Cc1ccccc1)C(=O)N[C@@H](CCCNC(=N)N)C(=O)N[C@@H](C(C)C)C(=O)N2 [TI, Tachyplesin I] (HELM PEPTIDE1{K.W.C.F.R.V.C.Y.R.G.I.C.Y.R.R.C.R.[am]}$PEPTIDE1,PEPTIDE1,3:R3-16:R3|PEPTIDE1,PEPTIDE1,7:R3-12:R3$$$V2.0)",stability in serum,[1],completely stable
same,stability in serum,[2],completely stable
same,"remaining at 24 h, 50 µM",in vitro,25%
same,CC50,[3]; [10],1.7 ± 0.2 µM
same,CC50,"[3]; HaCaT non-cancerous control, 2 h peptide in serum-free medium",11.6 ± 1.6 µM
same,CC50,"[3]; HeLa, 2 h peptide in serum-free medium",13.1 ± 1.2 µM
same,CC50,"[3]; MM96L, 2 h peptide in serum-free medium",1.5 ± 0.1 µM
same,CC50,[3]; [11],2.5 ± 0.1 µM
same,MIC,S. aureus ATCC 25923,1 to 4 µM
same,MIC,S. aureus ATCC 6538,4 to 8 µM
same,Concentration reducing biofilm metabolic activity by 50%,[4],21.5 ± 2.2 µM
same,MIC,E. coli DC2 CGSC 7139,0.5 to 1 µM
same,MIC,E. coli ATCC 25922,0.0625 to 0.5 µM
same,hemolysis,[5],66%
same,HC50 (concentration required to induce 50% lysis in RBCs),[6],34.9 ± 2.8 µM
"CC[C@H](C)[C@@H]1NC(=O)CNC(=O)[C@H](CCCNC(=N)N)NC(=O)[C@H](Cc2ccc(O)cc2)NC(=O)[C@@H]2CSSC[C@H](NC1=O)C(=O)N[C@@H](Cc1ccc(O)cc1)C(=O)N[C@@H](CCCNC(=N)N)C(=O)N[C@@H](CCCCN)C(=O)N[C@H](C(=O)N[C@@H](CCCNC(=N)N)C(N)=O)CSSC[C@H](NC(=O)[C@H](Cc1c[nH]c3ccccc13)NC(=O)[C@@H](N)CCCCN)C(=O)N[C@@H](Cc1ccccc1)C(=O)N[C@@H](CCCNC(=N)N)C(=O)N[C@@H](C(C)C)C(=O)N2 [TIII, Tachyplesin III] (HELM PEPTIDE1{K.W.C.F.R.V.C.Y.R.G.I.C.Y.R.K.C.R.[am]}$PEPTIDE1,PEPTIDE1,3:R3-16:R3|PEPTIDE1,PEPTIDE1,7:R3-12:R3$$$V2.0; N-terminus assumed)","Melanoma Selectivity (activity-toxicity index, ATI = MHC/MCC50)",[7],5–48
same,CC50 at 2 h,"[3]; HaCaT keratinocyte cells, HaCaT non-cancerous control, 2 h peptide in serum-free medium",7.3 ± 0.5 µM
same,CC50 at 2 h,"[3]; HeLa cervical cancer cells, 2 h peptide in serum-free medium",21.7 ± 1.1 µM
same,CC50 at 2 h,"[3]; MM96L melanoma cells, 2 h peptide in serum-free medium",1.8 ± 0.1 µM
same,CC50 at 2 h,[3]; [10],2 ± 0.1 µM
same,CC50 at 2 h,[3]; [11],1.7 ± 0.1 µM
same,MIC,S. aureus ATCC 25923,1 to 4 µM
same,MIC,S. aureus ATCC 6538,4 to 8 µM
same,prevention of biofilm formation,[8],prevent the formation of a Pseudomonas aeruginosa biofilm
same,Concentration reducing biofilm metabolic activity by 50% at 4 h,"[4]; Staphylococcus aureus, preformed S. aureus biofilm",24.2 ± 4.1 µM
same,Metabolically Active Cells,[9],43.3 ± 4.1%
same,MIC,E. coli DC2 CGSC 7139,0.25 to 0.5 µM
same,MIC,E. coli ATCC 25922,0.0625 to 0.5 µM
same,hemolysis at 1 h,[5]; red blood cells in PBS,41%
same,HC50 (concentration required to induce 50% lysis in RBCs),[6],86.4 ± 12.2 µM
